± gives the expanded uncertainty stated by the source.

Among the data in the NIST ThermoML archive (doi:10.1016/j.jct.2012.06.009) are activity coefficient values, retold here.

This series in a line: activity coefficient (dimensionless); of the first substance listed, at infinite dilution; xn = mol fraction of the nth substance listed. As to conditions: 101 kPa, Liquid, Chromatography, x1 = 0.

Consider `ClCCCl` [1,2-dichloroethane] + CCCCCCCCCC(=O)O, for which the activity coefficient (314.1 K) is 1.45 ± 0.12; the activity coefficient (314.24 K) is 1.5 ± 0.13; the activity coefficient (333.26 K) was 1.35 ± 0.11; the activity coefficient (333.38 K) worked out at 1.4 ± 0.12; the activity coefficient (353.3 K) is 1.27 ± 0.11.
Turning to `ClCCCl` [1,2-dichloroethane] + CCCCCCCCCCCC(=O)O, the activity coefficient was found to be 1.38 ± 0.12 (314.1 K); 1.37 ± 0.12 (314.24 K); 1.3 ± 0.11 (333.26 K); 1.32 ± 0.11 (333.38 K); 1.23 ± 0.1 (353.25 K).
Consider `ClCCCl` [1,2-dichloroethane] + CCCCCCCCCCCCCC(=O)O, for which the activity coefficient is 1.21 ± 0.1 (314.1 K); 1.24 ± 0.1 (314.24 K); 1.2 ± 0.099 (333.26 K); 1.18 ± 0.098 (333.38 K); 1.13 ± 0.094 (353.25 K); 1.13 ± 0.093 (353.3 K).
Regarding `ClCCCl` [1,2-dichloroethane] + CCCCCCCCCCCCCCCC(=O)O, the activity coefficient amounted to 1.22 ± 0.1 (340.19 K), 1.19 ± 0.099 (348.01 K) and 1.14 ± 0.095 (358.22 K).
Regarding `CC(C)CC(C)(C)C` [2,2,4-trimethylpentane] + CCCCCCCCCC(=O)O, the activity coefficient runs as follows: (314.1 K) 2.02 ± 0.17; (314.24 K) 1.98 ± 0.17; (333.26 K) 1.91 ± 0.16; (353.25 K) 1.86 ± 0.16.
As for `CC(C)CC(C)(C)C` [2,2,4-trimethylpentane] + CCCCCCCCCCCC(=O)O, the activity coefficient by setting is: (314.1 K) 1.75 ± 0.15; (314.24 K) 1.77 ± 0.15; (333.26 K) 1.7 ± 0.14; (333.38 K) 1.72 ± 0.15; (353.25 K) 1.67 ± 0.14; (353.3 K) 1.69 ± 0.14.
Take `CC(C)CC(C)(C)C` [2,2,4-trimethylpentane] + CCCCCCCCCCCCCC(=O)O: the activity coefficient by setting is: (338.27 K) 1.53 ± 0.13; (348.3 K) 1.5 ± 0.13; (358.33 K) 1.45 ± 0.12.
On to `CC(C)CC(C)(C)C` [2,2,4-trimethylpentane] + CCCCCCCCCCCCCCCC(=O)O, for which the activity coefficient (340.19 K) turned out to be 1.5 ± 0.13, the activity coefficient (348.01 K) is 1.46 ± 0.12 and the activity coefficient (358.32 K) was found to be 1.42 ± 0.12.
Consider `ClCc1ccccc1` [(chloromethyl)benzene] + CCCCCCCCCCCC(=O)O, for which the activity coefficient came to 1.71 ± 0.15 (358.06 K) and 1.71 ± 0.15 (358.1 K).
For `ClCc1ccccc1` [(chloromethyl)benzene] + CCCCCCCCCCCCCC(=O)O, the activity coefficient came to 1.61 ± 0.14 (333.26 K), 1.6 ± 0.14 (333.38 K), 1.57 ± 0.13 (353.25 K) and 1.55 ± 0.13 (353.3 K).
In the case of `ClCc1ccccc1` [(chloromethyl)benzene] + CCCCCCCCCCCCCCCC(=O)O, the activity coefficient stood at 1.62 ± 0.14 (348.01 K) and 1.57 ± 0.13 (358.22 K).
Consider `CC(C)=O` [acetone] + CCCCCCCCCC(=O)O, for which the activity coefficient by setting is: (314.1 K) 1.56 ± 0.13; (333.26 K) 1.46 ± 0.12; (333.38 K) 1.47 ± 0.12; (353.25 K) 1.34 ± 0.11.
For `CC(C)=O` [acetone] + CCCCCCCCCCCC(=O)O, the activity coefficient amounted to 1.59 ± 0.14 (314.1 K); 1.59 ± 0.14 (314.24 K); 1.45 ± 0.12 (333.26 K); 1.47 ± 0.12 (333.38 K); 1.33 ± 0.11 (353.25 K); 1.36 ± 0.12 (353.3 K).
With `CC(C)=O` [acetone] + CCCCCCCCCCCCCC(=O)O, the activity coefficient (314.1 K) was 1.43 ± 0.12; the activity coefficient (314.24 K) amounted to 1.46 ± 0.12; the activity coefficient (333.26 K) stood at 1.36 ± 0.11; the activity coefficient (333.38 K) was 1.35 ± 0.11; the activity coefficient (353.25 K) turned out to be 1.3 ± 0.11; the activity coefficient (353.3 K) is 1.27 ± 0.11.
On to `CC(C)=O` [acetone] + CCCCCCCCCCCCCCCC(=O)O, for which the activity coefficient (340.17 K) amounted to 1.49 ± 0.13; the activity coefficient (340.19 K) was 1.49 ± 0.13; the activity coefficient (347.93 K) was found to be 1.41 ± 0.12; the activity coefficient (348.01 K) came to 1.42 ± 0.12; the activity coefficient (358.23 K) turned out to be 1.32 ± 0.11; the activity coefficient (358.32 K) is 1.34 ± 0.11.
Turning to `COc1ccccc1` [anisole] + CCCCCCCCCC(=O)O, the activity coefficient runs as follows: (353.25 K) 1.43 ± 0.12; (353.3 K) 1.45 ± 0.12.
As to `COc1ccccc1` [anisole] + CCCCCCCCCCCC(=O)O, the activity coefficient is, setting by setting: (333.26 K) 1.37 ± 0.12; (343.65 K) 1.35 ± 0.11; (353.25 K) 1.33 ± 0.11; (353.3 K) 1.35 ± 0.11.
For `COc1ccccc1` [anisole] + CCCCCCCCCCCCCC(=O)O, the activity coefficient (314.1 K) was 1.32 ± 0.11; the activity coefficient (314.24 K) came out at 1.3 ± 0.11; the activity coefficient (333.26 K) came to 1.29 ± 0.11; the activity coefficient (333.38 K) stood at 1.27 ± 0.11; the activity coefficient (353.25 K) turned out to be 1.24 ± 0.1; the activity coefficient (353.3 K) worked out at 1.21 ± 0.1.
For `COc1ccccc1` [anisole] + CCCCCCCCCCCCCCCC(=O)O, the activity coefficient came out at 1.3 ± 0.11 (340.19 K), 1.28 ± 0.11 (348.01 K) and 1.25 ± 0.1 (358.22 K).
Take `CCCCO` [butan-1-ol] + CCCCCCCCCC(=O)O: the activity coefficient (333.26 K) is 1.48 ± 0.13, the activity coefficient (333.35 K) was 1.53 ± 0.13, the activity coefficient (353.25 K) was 1.34 ± 0.11 and the activity coefficient (353.3 K) stood at 1.32 ± 0.11.
Turning to `CCCCO` [butan-1-ol] + CCCCCCCCCCCC(=O)O, the activity coefficient was 1.7 ± 0.14 (314.24 K); 1.54 ± 0.13 (333.26 K); 1.51 ± 0.13 (333.38 K); 1.34 ± 0.11 (353.25 K); 1.36 ± 0.11 (353.3 K).
Regarding `CCCCO` [butan-1-ol] + CCCCCCCCCCCCCC(=O)O, the activity coefficient was found to be 1.49 ± 0.13 (314.1 K); 1.54 ± 0.13 (314.24 K); 1.45 ± 0.12 (333.26 K); 1.42 ± 0.12 (333.38 K); 1.22 ± 0.11 (353.25 K); 1.32 ± 0.12 (353.3 K).
On to `CCCCO` [butan-1-ol] + CCCCCCCCCCCCCCCC(=O)O, for which the activity coefficient reads like this: (340.19 K) 1.65 ± 0.14; (348.01 K) 1.55 ± 0.13; (358.32 K) 1.43 ± 0.12.
`CCC(C)O` (configuration not stated) [butan-2-ol] + CCCCCCCCCC(=O)O: the activity coefficient is 1.33 ± 0.11 (314.1 K); 1.35 ± 0.11 (314.24 K); 1.17 ± 0.097 (333.26 K); 1.16 ± 0.096 (333.38 K); 1.05 ± 0.087 (353.25 K); 1.04 ± 0.085 (353.3 K).
Take `CCC(C)O` (configuration not stated) [butan-2-ol] + CCCCCCCCCCCC(=O)O: the activity coefficient reads like this: (314.1 K) 1.28 ± 0.11; (314.24 K) 1.3 ± 0.11; (333.38 K) 1.17 ± 0.097; (353.25 K) 1.06 ± 0.088; (353.3 K) 1.08 ± 0.089.
Regarding `CCC(C)O` (configuration not stated) [butan-2-ol] + CCCCCCCCCCCCCC(=O)O, the activity coefficient is, setting by setting: (314.1 K) 1.17 ± 0.097; (314.24 K) 1.21 ± 0.1; (333.26 K) 1.12 ± 0.093; (333.38 K) 1.11 ± 0.092; (353.25 K) 1.05 ± 0.087; (353.3 K) 1.04 ± 0.086.
With `CCC(C)O` (configuration not stated) [butan-2-ol] + CCCCCCCCCCCCCCCC(=O)O, the activity coefficient (340.19 K) came to 1.26 ± 0.1, the activity coefficient (348.01 K) stood at 1.2 ± 0.1 and the activity coefficient (358.32 K) is 1.12 ± 0.092.
With `Clc1ccccc1` [chlorobenzene] + CCCCCCCCCC(=O)O, the activity coefficient is 1.16 ± 0.096 (333.26 K), 1.18 ± 0.098 (333.38 K), 1.17 ± 0.097 (353.25 K) and 1.15 ± 0.096 (353.3 K).
As to `Clc1ccccc1` [chlorobenzene] + CCCCCCCCCCCC(=O)O, the activity coefficient runs as follows: (314.1 K) 1.11 ± 0.091; (314.24 K) 1.12 ± 0.092; (333.26 K) 1.08 ± 0.089; (343.65 K) 1.07 ± 0.089; (353.25 K) 1.07 ± 0.088.
As to `Clc1ccccc1` [chlorobenzene] + CCCCCCCCCCCCCC(=O)O, the activity coefficient came to 0.983 ± 0.081 (314.1 K); 0.998 ± 0.082 (314.24 K); 0.996 ± 0.082 (333.26 K); 0.982 ± 0.081 (333.38 K); 0.979 ± 0.081 (353.25 K); 0.961 ± 0.079 (353.3 K).
Regarding `Clc1ccccc1` [chlorobenzene] + CCCCCCCCCCCCCCCC(=O)O, the activity coefficient reads like this: (340.19 K) 0.974 ± 0.08; (348.01 K) 0.957 ± 0.079; (358.22 K) 0.974 ± 0.08.
With `C1CCCCC1` [cyclohexane] + CCCCCCCCCC(=O)O, the activity coefficient worked out at 1.44 ± 0.12 (314.1 K); 1.46 ± 0.12 (314.24 K); 1.39 ± 0.12 (333.26 K); 1.39 ± 0.12 (333.38 K); 1.35 ± 0.12 (353.25 K); 1.31 ± 0.11 (353.3 K).
Turning to `C1CCCCC1` [cyclohexane] + CCCCCCCCCCCC(=O)O, the activity coefficient by setting is: (314.1 K) 1.29 ± 0.11; (314.24 K) 1.28 ± 0.11; (333.38 K) 1.25 ± 0.1; (353.25 K) 1.2 ± 0.1; (353.3 K) 1.2 ± 0.1.
In the case of `C1CCCCC1` [cyclohexane] + CCCCCCCCCCCCCC(=O)O, the activity coefficient was 1.09 ± 0.09 (314.1 K); 1.09 ± 0.09 (314.24 K); 1.07 ± 0.088 (333.38 K); 1.05 ± 0.087 (353.25 K); 1.02 ± 0.085 (353.3 K).
